Experimental data reported in patent publication US20070249545A1, “DIHYDROFOLATE REDUCTASE INHIBITION BY EPIGALLOCATECHIN GALLATE COMPOUNDS” (priority 2004, published 2007).

Experiments:
S. maltophilia = assay: Broth dilution MIC determination; type: cell-based, Stenotrophomonas maltophilia
Experimental: Eighteen strains of cotrimoxazole susceptible S. maltophilia were collected during the last year at the Hospital Universitario Virgen de la Arrixaca (Murcia, Spain) from clinical isolates. Bacteria were frozen at −70° C. in glycerol-meat medium and inoculated onto Columbia agar (Fluka Chemie GmbH, Madrid, Spain) supplemented with 5% of defibrinated sheep blood 48 and 24 h prior to susceptibility testing.
MICs for the 18 strains were determined by the broth dilution method at a final inoculum of 5×10^5 CFU/ml, according to the guidelines recommended by the NCCLS by using cation-adjusted Mueller-Hinton broth (Fluka). After incubation at 37° C. for 24 h, the lowest concentration of the two-fold serially diluted EGCG at which no visible growth occurred was defined as its MIC.

Caco-2 = assay: Growth of Caco-2 colon cancer cells; type: cell-based, human
Experimental: (§1) To determine whether EGCG inhibits DHFR activity in vivo, two human cancer cell, (Caco-2 from colon cancer and Jurkat T a lymphoma cell line) were incubated with various concentrations of EGCG in a standard medium.

Jurkat T = assay: Growth of Jurkat T lymphoma cells; type: cell-based, human
Experimental: as §1

S. maltophilia DHFR = S. maltophilia DHFR (Stenotrophomonas maltophilia, UniProt B2FPG1); type: biochemical; details: S. maltophilia DHFR
S. maltophilia DHFR, sequence (B2FPG1 entry or part of it): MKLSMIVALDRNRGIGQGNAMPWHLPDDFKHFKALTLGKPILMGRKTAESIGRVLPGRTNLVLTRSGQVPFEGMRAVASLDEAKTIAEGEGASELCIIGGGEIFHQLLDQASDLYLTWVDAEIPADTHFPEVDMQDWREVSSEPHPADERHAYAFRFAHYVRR
Experimental: For the DHFR extraction, S. maltophilia strain number 1, was inoculated onto fresh agar 24 h before using. Then, liquid medium was inoculated with the strain and these broth cultures were incubated at 37° C. and shaken at 100 cycles per min. Solid medium was MacConkey agar (Oxoid Ltd., Basingstoke, England). Liquid medium was Brilliant Green Bile 2% broth (Oxoid). Bacteria were grown to mid-log phase, harvested by centrifugation (1,600 rpm 30 min) and washed twice in 50 mM phosphate buffer (pH 7.0) followed each time by a new centrifugation (1,600 rpm 5 min). Cell lysis, centrifugation, and dialysis were carried out between 4 and 8° C. Fast protein liquid chromatography (FPLC) purification steps were performed at room temperature. […] After centrifugation at 36,000 rpm for 30 min to remove cell debris, the supernatant was filtered. This supernatant was brought to 40% saturation with solid ammonium sulfate under continuous stirring. After 1 h the solution was centrifuged at 35,000 rpm for 30 min and the pellet discarded. Additional ammonium sulfate was added to the clear supernatant to give 90% saturation and stirred for 1 h. After centrifugation, the precipitates were suspended in 2 ml of buffer B (10 mM potassium phosphate buffer, pH 7.4, 2 mM β-mercaptoethanol). Concentrated enzyme (2 ml samples) was loaded onto a […] gel-filtration column (Sephacryl S-75 16/60 Hi-Prep, Amersham Pharmacia Biotech Europe GmbH, Barcelona, Spain), equilibrated with buffer B and eluted at 0.5 ml/min. The active fractions were concentrated and stored at −80° C. until used.
Initial velocity inhibition experiments were carried out for the inhibition studies of S. maltophilia with TMP and EGCG. One substrate (NADPH) was held constant at saturating concentration while the other substrate (DHF) and the inhibitor (TMP or EGCG) were varied. To prevent the oxidation of EGCG the reaction mixture contained 1 mM N-acetylcysteine (Sigma). For MTX inhibition the slow development of […] inhibition was determined by continuously monitoring the disappearance of NADPH and DHF after initiation of the reaction by the addition of DHFR. Reaction mixtures contained buffer, NADPH (100 μM), DHF (20 μM), and various concentrations of MTX. The extent of recovery of enzymatic activity following inhibition induced by preincubation with DHFR inhibitors was determined as follows. DHFR was preincubated for 30 min at 25° C. in the buffer mixture containing MTX, TMP or EGCG. An aliquot of the incubation mixture was then diluted 500-fold into a reaction mixture containing buffer mixture, NADPH (100 μM), and DHF (20 μM). Recovery of enzyme activity was followed by continuous monitoring at 340 nm.
Provided that the concentration of free inhibitor is not substantially altered by the formation of an enzyme-NADPH-inhibitor complex, the progress curve for the inhibition in the presence of saturating NADPH can be described by Eqn. 1 (as above): P=vst+(v0−vs)(1−exp(−kobst))/kobs • where vs, v0 and kobs represent the steady-state velocity, initial velocity and apparent first-order rate constant, respectively. The apparent first-order rate constant is related to the inhibitor concentration by Eqn. 2, where Ki denotes the dissociation constants for the initial binding of MTX to the enzyme-NADPH complex. [formula]

[1] = eighteen S. maltophilia isolates
[2] = standard medium, read-out: IC50 of cell growth

Work on (−)-epigallocatechin gallate [EGCG] yielded an MIC (S. maltophilia; S. maltophilia strain 1) of 64 µg/mL, an MIC50 (S. maltophilia; [1]) of 32 µg/mL and an MIC90 (S. maltophilia; [1]) of 64 µg/mL. The “MICs (range)” value (S. maltophilia; [1]) was 4 to 256 µg/mL, the apoptosis (Caco-2) was “induction of apoptosis” and the cell cycle effect (Caco-2) was “G0/G1 phase arrest”. The “effects in HT medium and in the presence of folinic acid or thymine” value (Caco-2) was “highly attenuated”, the IC50 (Caco-2; [2]) was 30 µM and the apoptosis (Jurkat T) was “induction of apoptosis”. The cell cycle effect (Jurkat T) was “G0/G1 phase arrest”, the “effects in HT medium and in the presence of folinic acid or thymine” value (Jurkat T) was “highly attenuated” and the IC50 (Jurkat T; [2]) was 10 µM. The “Type of inhibition observed” value (S. maltophilia DHFR) was “competitive (reversible)”, the Ki (S. maltophilia DHFR; competitive respect to DHF, read-out: inhibition constant (Ki)) was 4.04 µM and the “effect of preincubation of the enzyme with inhibitor” value (S. maltophilia DHFR; preincubation 30 min, 500-fold dilution) was “did not showed any effect on enzymatic activity”.
